# US10709692B2, “Isoxazolidine derived inhibitors of receptor interacting protein kinase 1 (RIPK1)” (Denali Therapeutics Inc., priority 2015, dated 2020)
# Target: T1, receptor interacting protein kinase 1 (GST-hRIPK1 (8-327)) (Homo sapiens, UniProt Q13546)
# T1 construct: GST-hRIPK1 (8-327) enzyme was generated by Proteros GmbH by Baculovirus expression system
# T1 sequence (Q13546 8-327): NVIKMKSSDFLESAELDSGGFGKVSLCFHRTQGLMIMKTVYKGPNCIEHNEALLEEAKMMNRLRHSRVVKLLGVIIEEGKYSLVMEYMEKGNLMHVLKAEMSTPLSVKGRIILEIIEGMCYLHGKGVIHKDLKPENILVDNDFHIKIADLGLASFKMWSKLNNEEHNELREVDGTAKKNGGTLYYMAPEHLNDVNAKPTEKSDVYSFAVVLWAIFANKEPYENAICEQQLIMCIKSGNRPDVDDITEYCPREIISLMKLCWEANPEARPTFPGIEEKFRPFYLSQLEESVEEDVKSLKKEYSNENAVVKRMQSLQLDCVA
# Experiment: Fluorescent Polarization Binding (FP Binding) assay
# Details: 10 nM GST-hRIPK1 (8-327), 5 nM fluorescent-labeled ligand, 30 min at RT
# Method: Fluorescent Polarization Binding (FP Binding) assay (Berger S. B. et al. (2015) Cell Death Discovery, 1: 15009; Maki J. L. et al. (2012) Anal Biochem., 427(2): 164-174) was performed in polystyrene low volume 384-well black plate, at Room Temperature (RT) in a final volume of 10.1 μl/well using 10 nM of GST-hRIPK1 (8-327) enzyme and 5 nM of fluorescent-labeled ligand (14-(2-{[3-({2-{[4-(cyanomethyl)phenyl]amino}-6-[(5-cyclopropyl-1H-pyrazol-3-yl)amino]-4-pyrimidinyl}amino) propyl]amino}-2-oxoethyl)-16,16,18,18-tetramethyl-6,7,7a,8a,9,10,16,18-octahydrobenzo[2″3″]indolizino[8″, 0.7″:5′,6′]pyrano[3′,2′:3,4]pyrido[1,2-a]indol-5-ium-2-sulfonate.
# Test compounds were serially diluted in DMSO at 100 fold final concentrations in the assay (1% DMSO final). In each well of a 384-well Plate were dispensed 0.1 μL of compound solution (or DMSO for controls) followed by 5 μL of GST-hRIPK1 (8-327) at twice the final concentrations in assay-buffer (50 mM HEPES pH 7.5, 10 mM NaCl, 50 mM MgCl2, 0.02% CHAPS, 0.5 mM DTT and 0.01% Pluronic F127). For negative control the enzyme addition was replaced by assay buffer only.
# After addition of 5 μL of fluorescent-labeled ligand at twice the final concentrations in assay buffer, the plate was incubated at RT for 30 min. At the end, the binding was measured as FP value with the Envision (PerkinElmer) plate reader using filter for an excitation λ=531 nm FP and an emission λ=595 nm FP (S & P-pol).
# Test compound inhibition was expressed as percent inhibition of internal assay controls. For concentration response curves, normalized data is fit and IC50 determined using XL-fit (IDBS) for Excel. IC50 were averaged to determine a mean value, for a minimum of two independent experiments.
# Receptor interacting protein kinase 1 activity of exemplary compounds was determined according to the above general procedures.
# Receptor interacting protein kinase 1 activity of certain compounds was determined according to the above general procedures.
row,Structure (SMILES),IC50
1,"C[C@H](O)C(=O)N1OCC[C@H]1c1ccccc1 [Compound 15, (2S)-2-Hydroxy-1-[(3S)-3-phenyl-1,2-oxazolidin-2-yl]propan-1-one]",> 10 µM
2,"O=C(c1cnn2ccccc12)N1OCC[C@H]1c1ccccc1 [Compound 21, (3S)-3-phenyl-2-{pyrazolo[1,5-a]pyridine-3-carbonyl}-1,2-oxazolidine]",1 to 10 µM
3,"CN1CC(C)(C(=O)N2OCC[C@H]2c2ccc(F)cc2)C1 [Compound 42, (3S)-2-(1,3-Dimethylazetidine-3-carbonyl)-3-(4-fluorophenyl)-1,2-oxazolidine]",> 10 µM
4,"CC1(C(=O)N2OCC[C@H]2c2ccc(F)cc2)CNC1 [Compound 43, (3S)-3-(4-Fluorophenyl)-2-(3-methylazetidine-3-carbonyl)-1,2-oxazolidine]",> 10 µM
5,"CC(C)(C)OC(=O)N1CC(C)(C(=O)N2OCC[C@H]2c2ccc(F)cc2)C1 [Compound 44, tert-Butyl 3-[(3S)-3-(4-fluorophenyl)-1,2-oxazolidine-2-carbonyl]-3-methylazetidine-1-carboxylate]",1 to 10 µM
6,"CC(C)(C)C(=O)N1OCC[C@@H]1c1ccnc(F)c1 [Compound 45, 1-[(3R)-3-(2-Fluoropyridin-4-yl)-1,2-oxazolidin-2-yl]-2,2-dimethylpropan-1-one]",1 to 10 µM
7,"CC(C)(C)C(=O)N1OCC[C@@H]1c1ccc(Cl)cc1 [Compound 48, 1-[(3R)-3-(4-Chlorophenyl)-1,2-oxazolidin-2-yl]-2,2-dimethylpropan-1-one]",> 10 µM
8,"CC(C)(C)C(=O)N1OCC[C@@H]1c1ccc(F)c(F)c1 [Compound 51, 1-[(3R)-3-(3,4-Difluorophenyl)-1,2-oxazolidin-2-yl]-2,2-dimethylpropan-1-one]",1 to 10 µM
9,"CC(C)(F)C(=O)N1OCC[C@H]1c1ccccc1 [Compound 56, 2-Fluoro-2-methyl-1-[(3S)-3-phenyl-1,2-oxazolidin-2-yl]propan-1-one]",< 1 µM
10,"CC1(C(=O)N2OCC[C@H]2c2ccccc2)CC(F)(F)C1 [Compound 57, (3S)-2-(3,3-difluoro-1-methylcyclobutane-carbonyl)-3-phenyl-1,2-oxazolidine]",< 1 µM
11,"CC(C)(C)C(=O)N1OCCC1c1cccnc1 (centres unmarked) [Compound 58, 2,2-Dimethyl-1-[3-(pyridin-3-yl)-1,2-oxazolidin-2-yl]propan-1-one]",< 1 µM
12,"Cn1c(C#N)ccc1C(=O)N1OCC[C@@H]1c1ccc(F)cc1 [Compound 59, 5-[(3R)-3-(4-fluorophenyl)-1,2-oxazolidine-2-carbonyl]-1-methyl-1H-pyrrole-2-carbonitrile]",> 10 µM
13,"Cn1c(C#N)ccc1C(=O)N1OCC[C@H]1c1ccc(F)cc1 [Compound 60, 5-[(3S)-3-(4-fluorophenyl)-1,2-oxazolidine-2-carbonyl]-1-methyl-1H-pyrrole-2-carbonitrile]",< 1 µM
14,"CC(C)(C)C(=O)N1OCC[C@@H]1c1cccnc1F [Compound 63, 1-[(3R)-3-(2-Fluoropyridin-3-yl)-1,2-oxazolidin-2-yl]-2,2-dimethylpropan-1-one]",1 to 10 µM
15,"CC(C)C(=O)N1OCC[C@@H]1c1ccc(F)cc1 [Compound 65, 1-[(3R)-3-(4-Fluorophenyl)-1,2-oxazolidin-2-yl]-2-methylpropan-1-one]",> 10 µM
16,"CC(C)(C)C(=O)N1OCC[C@H]1c1cccnc1F [Compound 66, 1-[(3S)-3-(2-Fluoropyridin-3-yl)-1,2-oxazolidin-2-yl]-2,2-dimethylpropan-1-one]",< 1 µM
17,"CC(C)(C)C(=O)N1OCC[C@@H]1c1c(F)cccc1F [Compound 67, 1-[(3R)-3-(2,6-Difluorophenyl)-1,2-oxazolidin-2-yl]-2,2-dimethylpropan-1-one]",1 to 10 µM
18,"CC(C)(C)C(=O)N1OCC[C@H]1c1c(F)cccc1F [Compound 68, 1-[(3S)-3-(2,6-Difluorophenyl)-1,2-oxazolidin-2-yl]-2,2-dimethylpropan-1-one]",< 1 µM
19,"O=C([C@H]1C[C@H](O)C1)N1OCC[C@H]1c1ccccc1 [Compound 75, (1r,3r)-3-[(3S)-3-Phenyl-1,2-oxazolidine-2-carbonyl]cyclobutan-1-ol]",1 to 10 µM
20,"COCC1(C(=O)N2OCC[C@H]2c2ccccc2)CC1 [Compound 76, (3S)-2-[1-(Methoxymethyl)cyclo-propanecarbonyl]-3-phenyl-1,2-oxazolidine]",1 to 10 µM

# Second part, the compound after the results:
row,IC50,Structure (SMILES)
1,< 1 µM,"CC(CC(F)F)C(=O)N1OCC[C@H]1c1ccc(C#N)cc1 (single isomer, unassigned) [Compound 233]"
2,< 1 µM,"O=C(C1CC1(F)F)N1OCC[C@H]1c1ccc(F)cc1 (single isomer, unassigned) [Compound 236]"
3,< 1 µM,"O=C(C1CC1(F)F)N1OCC[C@H]1c1ccc(F)cc1 (single isomer, unassigned) [Compound 237]"
4,< 1 µM,"O=C(N1OCC[C@H]1c1ccc(F)cc1)C1(C(F)(F)F)CCCC1 [Compound 29, (3S)-3-(4-fluorophenyl)-2-[1-(trifluoromethyl)cyclo-pentanecarbonyl]-1,2-oxazolidine]"
5,< 1 µM,"CC(C)(C)C(=O)N1OCC[C@@H]1c1cccc(F)c1F [Compound 30, 1-[(3R)-3-(2,3-Difluorophenyl)-12-oxazolidin-2-yl]-2,2-dimethylpropan-1-one]"
6,< 1 µM,"CC(C)(C)C(=O)N1OCC[C@H]1c1cccc(F)c1F [Compound 31, 1-[(3S)-3-(2,3-Difluorophenyl)-1,2-oxazolidin-2-yl]-2,2-dimethylpropan-1-one]"
7,< 1 µM,"O=C(N1OCC[C@H]1c1ccc(F)cc1)C12CC(C1)C2 [Compound 32, (3S)-2-{Bicyclo[1.1.1]pentane-1-carbonyl}-3-(4-fluorophenyl)-1,2-oxazolidine]"
8,< 1 µM,"CC1(C(=O)N2OCC[C@H]2c2ccc(F)cc2)COC1 [Compound 33, (3S)-3-(4-Fluorophenyl)-2-(3-methyloxetane-3-carbonyl)-1,2-oxazolidine]"
9,< 1 µM,"O=C(N1OCC[C@H]1c1ccc(F)cc1)C1(F)CC1 [Compound 34, (3S)-2-(1-Fluorocyclopropane-carbonyl)-3-(4-fluorophenyl)-1,2-oxazolidine]"
10,< 1 µM,"O=C(N1OCC[C@H]1c1ccc(F)cc1)C1(C(F)(F)F)CC1 [Compound 37, (3S)-3-(4-Fluorophenyl)-2-[1-(trifluoromethyl)cyclo-propanecarbonyl]-1,2-oxazolidine]"
11,< 1 µM,"CCC1(C(=O)N2OCC[C@H]2c2ccc(F)cc2)COC1 [Compound 38, (3S)-2-(3-Ethyloxetane-3-carbonyl)-3-(4-fluorophenyl)-1,2-oxazolidine]"
12,< 1 µM,"O=C(N1OCC[C@H]1c1ccc(F)cc1)C1(C(F)(F)F)CCC1 [Compound 39, (3S)-3-(4-Fluorophenyl)-2-[1-(trifluoromethyl)cyclo-butanecarbonyl]-1,2-oxazolidine]"
13,< 1 µM,"CC(C)(C)C(=O)N1OCC[C@H]1c1ccnc(F)c1 [Compound 46, 1-[(3S)-3-(2-Fluoropyridin-4-yl)-1,2-oxazolidin-2-yl]-2,2-dimethylpropan-1-one]"
14,< 1 µM,"CC(C)(C)C(=O)N1OCC[C@H]1c1ccc(Cl)cc1 [Compound 47, 1-[(3S)-3-(4-Chlorophenyl)-1,2-oxazolidin-2-yl]-2,2-dimethylpropan-1-one]"
15,< 1 µM,"CC(C)(C)OC(=O)N1OCCC1c1ccc(Cl)cc1 (centres unmarked) [Compound 49, tert-Butyl 3-(4-chlorophenyl)-1,2-oxazolidine-2-carboxylate]"
16,< 1 µM,"CC(C)(C)C(=O)N1OCC[C@H]1c1ccc(F)c(F)c1 [Compound 50, 1-[(3S)-3-(3,4-Difluorophenyl)-1,2-oxazolidin-2-yl]-2,2-dimethylpropan-1-one]"
17,< 1 µM,"O=C(N1OCC[C@H]1c1ccccc1)C1(C(F)(F)F)CC1 [Compound 54, (3S)-3-Phenyl-2-[1-(trifluoromethyl)cyclo-propanecarbonyl]-1,2-oxazolidine]"
18,< 1 µM,"CC(C)(C(=O)N1OCC[C@H]1c1ccccc1)C(F)(F)F [Compound 55, 3,3,3-Trifluoro-2,2-dimethyl-1-[(3S)-3-phenyl-1,2-oxazolidin-2-yl]propan-1-one]"
